Source: ChEMBL document CHEMBL1201862, “PubChem BioAssay data set” (2004)
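Method: 48-hour compound exposure of cells in 96-well plates, five concentrations, linear interpolation of endpoints. At the GI50, growth is halved.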 Activity calls are given as the source filed them. No stated cut-off is given here; in the data, active = GI50 up to about 1.1 µM and inactive = higher.

Experiments:
Experiment in all cases: NCI anticancer screen, dose series, 48 h
NCI-H23 = system: NCI-H23
SF-539 = system: SF-539
LOX IMVI = system: LOX IMVI
OVCAR-5 = system: OVCAR-5
HL-60 = system: HL-60
UACC-257 = system: UACC-257
SK-MEL-28 = system: SK-MEL-28
SNB-75 = system: SNB-75
CAKI-1 = system: CAKI-1
MOLT-4 = system: MOLT-4
A498 = system: A498
U-251 = system: U-251
SR = system: SR
Malme-3M = system: Malme-3M
HOP-92 = system: HOP-92
M14 = system: M14
PC-3 = system: PC-3
786-0 = system: 786-0
OVCAR-8 = system: OVCAR-8
OVCAR-4 = system: OVCAR-4

| SMILES | GI50 (NCI-H23) | GI50 (SF-539) | GI50 (LOX IMVI) | GI50 (OVCAR-5) | GI50 (HL-60) | GI50 (UACC-257) | GI50 (SK-MEL-28) | GI50 (SNB-75) | GI50 (CAKI-1) | GI50 (MOLT-4) | GI50 (A498) | GI50 (U-251) | GI50 (SR) | GI50 (Malme-3M) | GI50 (HOP-92) | GI50 (M14) | GI50 (PC-3) | GI50 (786-0) | GI50 (OVCAR-8) | GI50 (OVCAR-4) |
| --- | --- | --- | --- | --- | --- | --- | --- | --- | --- | --- | --- | --- | --- | --- | --- | --- | --- | --- | --- | --- |
| O=C(O)c1nn(-c2ccc(Cl)cc2)c2c1C(=O)c1ccccc1C2=O | 37.5 µM (inactive) | 30.2 µM (inactive) | > 100 µM (inactive) | > 100 µM (inactive) | > 100 µM (inactive) | > 100 µM (inactive) | > 100 µM (inactive) | 22.8 µM (inactive) | > 100 µM (inactive) | 22 µM (inactive) | > 100 µM (inactive) | 55.7 µM (inactive) | 21.2 µM (inactive) | 5.42 µM (inactive) | > 100 µM (inactive) | 20 µM (inactive) | > 100 µM (inactive) | > 100 µM (inactive) | > 100 µM (inactive) | > 100 µM (inactive) |
| CS(=O)(=O)N1CC(CCl)c2ccc([N+](=O)[O-])cc21 (stereo unspecified) | > 100 µM (inactive) | > 100 µM (inactive) | > 100 µM (inactive) | > 100 µM (inactive) | > 100 µM (inactive) | > 100 µM (inactive) | > 100 µM (inactive) | < 0.01 µM (active) | > 100 µM (inactive) | > 100 µM (inactive) | > 100 µM (inactive) | 58.6 µM (inactive) | > 100 µM (inactive) | > 100 µM (inactive) | > 100 µM (inactive) | > 100 µM (inactive) | > 100 µM (inactive) | > 100 µM (inactive) | > 100 µM (inactive) | > 100 µM (inactive) |
| COc1ccc(/C=N/N2C(=O)c3c(N)c(C#N)c(-c4ccccc4)c(-c4ccccc4)c3C2=O)cc1 |  | > 100 µM (inactive) | > 100 µM (inactive) | > 100 µM (inactive) | > 100 µM (inactive) | > 100 µM (inactive) | > 100 µM (inactive) | 88.7 µM (inactive) | > 100 µM (inactive) | > 100 µM (inactive) | > 100 µM (inactive) | 98.6 µM (inactive) | > 100 µM (inactive) | > 100 µM (inactive) | 84.3 µM (inactive) | > 100 µM (inactive) | > 100 µM (inactive) | 64.6 µM (inactive) | 82.4 µM (inactive) | 99.8 µM (inactive) |
| COc1cc(OC)c2c(O)c(S(=O)(=O)c3ccc(C)cc3)c(=O)oc2c1 | > 100 µM (inactive) | > 100 µM (inactive) |  | > 100 µM (inactive) | > 100 µM (inactive) | > 100 µM (inactive) | > 100 µM (inactive) | > 100 µM (inactive) | > 100 µM (inactive) | > 100 µM (inactive) | > 100 µM (inactive) | 96.6 µM (inactive) | > 100 µM (inactive) | > 100 µM (inactive) | > 100 µM (inactive) | > 100 µM (inactive) | > 100 µM (inactive) | > 100 µM (inactive) | > 100 µM (inactive) | > 100 µM (inactive) |
| COc1ccc(/C=N/NC(=O)C2=C(N)N(c3ccccc3)C(=C(C#N)C#N)S2)cc1 | > 100 µM (inactive) | 48.1 µM (inactive) |  | > 100 µM (inactive) | > 100 µM (inactive) | > 100 µM (inactive) | > 100 µM (inactive) | 16 µM (inactive) |  | > 100 µM (inactive) | 22.6 µM (inactive) | 63.8 µM (inactive) | > 100 µM (inactive) | > 100 µM (inactive) | 39.3 µM (inactive) | > 100 µM (inactive) | > 100 µM (inactive) | 62.5 µM (inactive) | 93.8 µM (inactive) | > 100 µM (inactive) |
| C[C@H]1C[C@H]2[C@@H]3C(C)(C)O[C@]4(O)C(=O)[C@]5(O)[C@@H](C)CC[C@H]1[C@]25C(=O)[C@]34C | 30.3 µM (inactive) | > 100 µM (inactive) | 36.1 µM (inactive) | 65.2 µM (inactive) | 29.4 µM (inactive) | 48.5 µM (inactive) |  |  | 39.4 µM (inactive) | 37.1 µM (inactive) | 35 µM (inactive) | 60.3 µM (inactive) | 40.1 µM (inactive) |  | 8.61 µM (inactive) | 71 µM (inactive) | 44.1 µM (inactive) | 75.5 µM (inactive) | 63.7 µM (inactive) |  |
| COc1ccc2c(c1)c1c3c(ccc4ncn2c43)N(CCN(C)C)CCN=1 | 0.968 µM (active) | 0.362 µM (active) | 0.378 µM (active) | 0.676 µM (active) | 0.333 µM (active) | 1.85 µM (inactive) | 0.897 µM (active) | 0.764 µM (active) | 1.71 µM (inactive) | 0.043 µM (active) | 1.42 µM (inactive) | 0.363 µM (active) | 0.0302 µM (active) | 1.2 µM (inactive) | 1.49 µM (inactive) | 0.895 µM (active) | 0.357 µM (active) | 0.19 µM (active) | 0.284 µM (active) | 0.309 µM (active) |
| CC(O)CC(=O)CO[C@H]1[C@H](O)[C@@H](O)[C@@H](O)[C@@H]2NC(=O)c3c(cc4c(c3O)OCO4)[C@H]21 (stereo partly specified) | 0.0335 µM (active) | 0.0214 µM (active) | 0.0208 µM (active) | 0.0711 µM (active) | 0.0386 µM (active) | 0.0397 µM (active) | < 0.0201 µM (active) | 0.0472 µM (active) | 0.512 µM (active) | 0.0313 µM (active) | 0.0218 µM (active) | < 0.015 µM (active) | 0.0335 µM (active) | 0.0118 µM (active) | 0.0377 µM (active) | 0.0361 µM (active) | 0.0272 µM (active) | 0.0439 µM (active) | 0.0332 µM (active) | 0.0483 µM (active) |
| CCCCn1c2c(n(CCCC)c1=[Se])-c1c(n(CCCC)c(=[Se])n1CCCC)S[Se][Se]S2 | 25.1 µM (inactive) | 20.8 µM (inactive) | 16.5 µM (inactive) | 20.7 µM (inactive) |  | 32.8 µM (inactive) | 39.1 µM (inactive) | 20.6 µM (inactive) | 5.3 µM (inactive) | 12.6 µM (inactive) | 33.5 µM (inactive) | 11.4 µM (inactive) | 20.7 µM (inactive) | 3.52 µM (inactive) | 2.01 µM (inactive) | 25.6 µM (inactive) | 14.9 µM (inactive) | 29.4 µM (inactive) | 16.9 µM (inactive) | 9.27 µM (inactive) |
| CCN(CC)CCCNc1nc2ccccc2[n+]([O-])n1 | > 100 µM (inactive) | > 100 µM (inactive) |  | > 100 µM (inactive) | > 100 µM (inactive) | > 100 µM (inactive) | > 100 µM (inactive) | 64.1 µM (inactive) | > 100 µM (inactive) | > 100 µM (inactive) | > 100 µM (inactive) | > 100 µM (inactive) | > 100 µM (inactive) | > 100 µM (inactive) | > 100 µM (inactive) | > 100 µM (inactive) | > 100 µM (inactive) | > 100 µM (inactive) | > 100 µM (inactive) | > 100 µM (inactive) |
| CN(C)C(=O)Nc1cc2c3c(c1)CCCN3CCC2 | > 10 µM (inactive) | > 10 µM (inactive) | > 10 µM (inactive) |  | > 10 µM (inactive) | > 10 µM (inactive) | > 10 µM (inactive) | > 10 µM (inactive) | > 10 µM (inactive) | > 10 µM (inactive) | 4.57 µM (inactive) | > 10 µM (inactive) | > 10 µM (inactive) | > 10 µM (inactive) | > 10 µM (inactive) | > 10 µM (inactive) | > 10 µM (inactive) | > 10 µM (inactive) | > 10 µM (inactive) | > 10 µM (inactive) |
| Cc1ncc([N+](=O)[O-])n1CCNCCCCn1ccnc1[N+](=O)[O-] | > 100 µM (inactive) | > 100 µM (inactive) | > 100 µM (inactive) | > 100 µM (inactive) | > 100 µM (inactive) | > 100 µM (inactive) | > 100 µM (inactive) | > 100 µM (inactive) | > 100 µM (inactive) | > 100 µM (inactive) | > 100 µM (inactive) | > 100 µM (inactive) | > 100 µM (inactive) | > 100 µM (inactive) | > 100 µM (inactive) | > 100 µM (inactive) | > 100 µM (inactive) | > 100 µM (inactive) | > 100 µM (inactive) | > 100 µM (inactive) |
| O=C(CCc1cccc(O)c1)NCCc1ccc(O)cc1 | > 100 µM (inactive) | > 100 µM (inactive) | > 100 µM (inactive) | > 100 µM (inactive) | > 100 µM (inactive) | > 100 µM (inactive) | > 100 µM (inactive) |  | > 100 µM (inactive) | > 100 µM (inactive) | > 100 µM (inactive) | > 100 µM (inactive) | > 100 µM (inactive) | > 100 µM (inactive) | > 100 µM (inactive) | > 100 µM (inactive) | > 100 µM (inactive) | > 100 µM (inactive) | > 100 µM (inactive) | > 100 µM (inactive) |
| O=C1NC(Cc2c[nH]c3ccccc23)C(=O)N2C(C3CCCCC3)c3[nH]c4ccccc4c3C[C@@H]12 (stereo partly specified) | 16.8 µM (inactive) |  | 13.3 µM (inactive) | 20.7 µM (inactive) | 13.4 µM (inactive) | 12.1 µM (inactive) | 16.4 µM (inactive) |  | 18.3 µM (inactive) | 5.97 µM (inactive) | 15.2 µM (inactive) | 11.4 µM (inactive) | 7.45 µM (inactive) | 13.1 µM (inactive) | 15.4 µM (inactive) | 13.2 µM (inactive) | 7.05 µM (inactive) | 11.4 µM (inactive) | 14.6 µM (inactive) | 11.1 µM (inactive) |
